Data published in US5688936A, “Vesicle membrane transport proteins” (priority 1993, dated 1997).
“Also recorded” adds a separate entry of the source.

What was measured:
[1] = biological target: T1, chromaffin granule amine transport protein (Rattus norvegicus, UniProt Q01818); assay: cell-based; type: cell-based
T1 sequence (Q01818 1-521): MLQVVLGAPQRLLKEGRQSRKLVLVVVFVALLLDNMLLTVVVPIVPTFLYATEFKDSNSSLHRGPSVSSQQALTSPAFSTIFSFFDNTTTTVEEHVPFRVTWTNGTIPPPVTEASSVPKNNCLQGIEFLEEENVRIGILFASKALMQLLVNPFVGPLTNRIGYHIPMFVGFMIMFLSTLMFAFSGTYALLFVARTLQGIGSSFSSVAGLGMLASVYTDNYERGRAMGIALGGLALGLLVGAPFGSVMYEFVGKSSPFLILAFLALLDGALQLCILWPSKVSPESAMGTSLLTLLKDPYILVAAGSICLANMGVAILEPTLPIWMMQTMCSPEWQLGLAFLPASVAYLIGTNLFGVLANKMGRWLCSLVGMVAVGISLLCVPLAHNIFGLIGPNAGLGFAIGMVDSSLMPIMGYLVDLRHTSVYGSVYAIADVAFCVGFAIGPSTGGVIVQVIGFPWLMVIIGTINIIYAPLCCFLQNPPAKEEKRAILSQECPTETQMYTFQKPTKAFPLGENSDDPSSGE
Protocol: Uptake and cellular compartmentalization of loaded dopamine were performed by growing cells on poly-lysine-coated glass coverslips. […] The cells were then washed three times in 0.1M sodium phosphate, pH 7.4, and incubated at 4° C. in 2% glyoxylic acid/0.5 mg% MgCl2, pH 4.9-5.0 for three minutes as described by de la Torre, J. Neurosci. Meth. 3:1-5 (1980). Briefly, excess solution is wiped off the bottom and edges of the slide using absorbent paper, taking care not to touch the section. The coverslips were then drained thoroughly, dried in air at 45° C. heated to 80° C. for five minutes, inverted over mineral oil on glass slides and examined under fluorescence using the appropriate filters as described by Knigge et al., Brain Res. 120:393-405 (1977). Briefly, the preparations were infiltrated with warm immersion oil and examined in a Leitz MPV2 microspectrofluorometer equipped with Schoffel excitation and emission grating monochromators, photomultipliers, and ratio computing circuitry. Cells were scanned with either monochromatic light (370 nm) or narrow band excitation (S405, BG3) light for the purpose of identifying fluorescence within cells. Ploem illumination was used in combination with a X 63 or X 100 oil immersion objective.
Dopamine-loaded fluorescence was carried out as described in Example 1. […] Glyoxylic-acid-induced fluorescence was used to determine the intracellular distribution as described above in Example 1. The procedures were the same as described in Example 1 however a pure cDNA clone encoding the vesicle membrane transport protein, selected in the presence of MPP^+, obtained as described herein, was used rather than the primary transformant. […]
The effects of various pharmacologic agents were tested to determine whether the properties of the protein encoded by the mpp^res cDNA corresponded with those expected for the chromaffin granule amine transport protein. […] The cells were pre-incubated in Krebs-Ringer buffer containing 1 μM pargyline and the dose of the drug indicated for 15 minutes. 25 nM [^3 H]-dopamine was then added in the same buffer and after incubation at 37° C. for one hour, the cells were washed in cold Krebs-Ringer buffer, lysed and counted in Ecolite (ICN) as described by Greene and Rein, Brain Res. 129:247-263 (1978). Values were determined from three separate wells and the mean was expressed as percent of control uptake±standard deviation. […] The dose required to inhibit maximal uptake by 50%, Ki, was estimated from the fluorescence data using a range of concentrations for each agent.

[2] = system: MPP^+ -resistant CHO cells; assay: MTT cytotoxicity assay in MPP+-resistant transfected CHO cells; type: cell-based, Chinese hamster; conditions: 1 μM reserpine, MPP+-resistant CHO cells
Protocol: Differential susceptibility to the respiratory complex I inhibitors MPP^+ and rotenone was shown by measuring toxicity by measuring general cell dehydrogenase activity with reduction of a tetrazolium dye (MTT) in a spectrophotometric plate assay as described by Hansen et al., J. Immunol. Methods 119:203-210 (1989). Briefly, a stock solution of MTT (3,(4,5-dimethylthiazol-2-yl)2,5-diphenyltetrazolium bromide) was dissolved at a concentration of 5 mg/ml in sterile phosphate buffered saline at room temperature. To each well was added 25 μl of the stock solution. After two hours of incubation at 37° C., 100 μl of extraction buffer (20% w/v of SDS in a solution of 50% each dimethylformamide and demineralized water with the pH adjusted to 4.7 with acetic acid and HCl). After an overnight incubation at 37° C., the optical densities at 570 nm were measured using a multiscanner, employing the extraction buffer as the blank. This assay was carried out in triplicate on 96-well plates (NUNC, Denmark). MPP^+ and rotenone at the concentrations indicated in FIG. 6a and 6b, respectively, was added to wild-type and MPP^+ -resistant CHO cells at approximately 50% confluence, and toxicity was assayed after 2-3 days by measuring general cell dehydrogenase activity with the reduction of the tetrazolium dye MTT (3,(4,5-dimethylthiazol-2-yl)2,5-diphenyl-tetrazolium bromide). After addition of the dye at a final concentration of 1 mg/ml, the cells were incubated for two hours at 37° C. and the formazan product was solubilized in 10% sodium dodecyl sulfate (SDS). The plates were maintained at 37° C. for an additional twenty hours and the optical density was determined in an ELISA plate reader at a test wavelength of 570 nm, a reference wavelength of 630 nm and a calibration setting of 1.99. All determinations were performed in triplicate and expressed as the mean, with the error bars representing standard deviation (FIG. 6a and 6b).
To determine whether an alteration in the process of respiration was responsible for the resistance to MPP^+, the effects of other known respiratory inhibitors were examined. […] Thus, if the resistance were due to a change in the site of action, the transfected cells should also show resistance to rotenone. […] However, rotenone is considered to have its selected effect on respiration at relatively low doses, and an additional, less specific effect at higher doses.
Therefore, the toxicity of MPP^+ to transfected cells in the presence of 1 μM reserpine was examined.

COC(=O)[C@H]1[C@H]2C[C@@H]3c4[nH]c5cc(OC)ccc5c4CCN3C[C@H]2C[C@@H](OC(=O)c2cc(OC)c(OC)c(OC)c2)[C@@H]1OC [reserpine]
inhibition of vesicular dopamine uptake in the fluorescence assay ([1]; 50 nM): inhibit vesicular dopamine uptake completely | perinuclear and particulate cytoplasmic dopamine staining of MPP+-resistant CHO cells ([1]; 1 μM): inhibited | Dopamine Fluorescence (mpp^res CHO) ([1]; agent 1 μM, untreated control ++++, 12 hour dopamine loading): 0 | Ki ([1]; dose required to inhibit maximal uptake by 50%, estimated from fluorescence data, read-out: Ki (est)): 25 nM | pattern of catecholamine accumulation in the MPP+-resistant transfectant ([1]; reserpine concentration not stated): reversion to the wild-type pattern of catecholamine accumulation; also recorded: reversed | reversal of MPP+ resistance [2]: Dramatic reversion to wild-type CHO sensitivity
